This note sets out measurements from patent US4788211A, “Antifungal compound and AFC complex produced from actinomadura SCC 1838” (priority 1987, dated 1988).

Each structure is given as a SMILES string. In brackets after ≈: the same amount, converted by molar mass. Some results are limits rather than exact numbers.

A word on the LD50: it is the dose at which mortality reaches 50%. As usually defined, the MIC is the lowest concentration found to suppress growth. Read a high MIC as a need for much substance.

Series [1] in a line: iv LD50 in mice. The note with it: mouse, in vivo.
Series [2] relates to Candida. Description: intravaginal Candida infection in hamsters. The format is in vivo.
The test system of series [3] is Candida (seven species). Description: in vitro antifungal activity (geometric mean MIC), Candida. The format is cell-based. The settings on record: for MIC: Candida, Candida (seven species). The text has this:
(§1) The in vitro antifungal results are summarized in Table II and provide the geometric mean MIC (mcg/mL).

Series [4] has as its system Dermatophytes (six species). Description: in vitro antifungal activity (geometric mean MIC), dermatophytes. The format is cell-based. The settings on record: for MIC: Dermatophytes (six species).
Description: as §1

[5] abbreviates: SDB (Sabouraud dextrose broth medium).

The molecule `N=C(N)NCCCCCCCCC(O)CCCCCCCC1NC(=N)NC1CC(O)CNC(=N)N` (stereo not drawn) [compound of this invention] gave an LD50 in series [1] of about 1.5 mg/kg. For the same molecule, the “activity against an intravaginal Candida infection” value in series [2] was “slight activity”. The MIC in series [3] (EMEM (Eagles Minimum Essential Medium)) is under 0.03 µg/mL; in series [3] (MA Medium), at most 1.4 µg/mL; in series [3] (setting [5]), at least 58 µg/mL; in series [4] (MA Medium), 2.5 µg/mL (≈ 5.02 µM); in series [4] (setting [5]), at most 0.13 µg/mL. Moreover, the “in vitro antifungal activity” value in series [3] (seven species of Candida) and in series [4] (six species of dermatophytes) was “very good in vitro antifungal activity” each time.
